In ChEMBL document CHEMBL3352792, “Fragment based search for small molecule inhibitors of HIV-1 Tat-TAR” (Bioorg Med Chem Lett, 2014) one finds IC50 and Activity data, which are given here for 28 compounds.

Structures are written as SMILES. pIC50: −log10 of the molar value. Counter-ions that a name gives are not always drawn. Active and inactive are the calls of the source. No cut-off for these calls is given here.

What is called pIC50 is −log10 of the IC50, conventionally taken in molar units. Lower therefore signals a high IC50.

For assay [1], the target named is Nucleic Acid. The assay is described as follows: Binding affinity to HIV-1 TAR RNA by Tat-TAR fluorimetric competition assay. Format: nucleic-acid assay, Human immunodeficiency virus 1.
The test system of assay [2] is Nucleic Acid. The assay can be described thus: Binding affinity to HIV-1 TAR RNA using 2 equivalents of compound by 1H NMR titration method. Format: nucleic-acid assay. The following applies: Human immunodeficiency virus 1.
Assay [3] has as its system Nucleic Acid. The assay is described as follows: Binding affinity to HIV-1 TAR RNA at 0.4 mM by 1H NMR titration method. As to conditions: Human immunodeficiency virus 1. Format: nucleic-acid assay.

As for `Cc1ccc2nc(N)nc(N)c2c1`, in assay [1], the pIC50 is 2.70. On the same count and under the same terms, under `Nc1nc2ccccc2[nH]1` stands < 1.96; under `NCc1cnc2nc(N)nc(N)c2n1`, 4.30.

`Nc1nc2ccccc2c(=O)[nH]1`: the pIC50 in assay [1] was < 1.70. The same measure, in the same setting: under `Nc1nc(N)c2cc(NCc3ccccc3)ccc2n1` stands 4.30. The compound `Nc1ccc2nc(N)nc(N)c2c1` [QUINAZOLINE-2,4,6-TRIAMINE] had a pIC50 in assay [1] of 4.40. Moreover, the outcome in assay [2] was Active.

In turn, `NCc1ccc2nc(N)nc(N)c2c1` gave a pIC50 in assay [1] of 4.15. In the case of `N=C(N)N` [GUANIDINE HYDROCHLORIDE], the pIC50 in assay [1] is < 1.70. Same read-out and setting: under `Nc1ccccn1` [2-AMINOPYRIDINE] stands < 1.70; under `NC1=Nc2cccc3cccc(c23)N1`, 4.30; under `Nc1ncccn1`, < 1.70. Same read-out and setting: next, `N=C(N)Nc1ccccc1`: < 1.70; `N=C(N)NCc1ccccc1`: < 1.70; `Nc1ncc[nH]1`: < 2.70. Still for that read-out and setting: next, `Nc1nc(N)c2c(N)c(N)ccc2n1`: 4.30; `NC1=Nc2ccccc2CN1`: < 2.00; `Nc1ccc2ccncc2c1`: 2.70. As for `CN(C)c1ccc2nc(N)nc(N)c2c1`, the negative-log IC50 (pIC50) in assay [1] is 4.35. The same measure, in the same setting: next, `Nc1nccc2ccc(O)cc12`: 3.12. On the same count and under the same terms, under `CN(C)c1nc(N(C)C)c2cc(N)ccc2n1` stands 3.89; under `Nc1ccc2c(N)nc(N)nc2c1`, 3.96. In assay [1], `Nc1ccc2ccnc(N)c2c1` had a pIC50 of 3.82. Further, the outcome in assay [3] was Active.

In turn, `Nc1nc(N)c2ccccc2n1` gave a pIC50 in assay [1] of 3.40. Still for that read-out and setting: under `c1ccc(CNC2=NCCN2)cc1` stands < 1.70. Same read-out and setting: next, `Nc1cccc2c(N)nccc12`: 3.15.

`CN(C)C1=Nc2cccc3cccc(c23)N1`: in assay [1], the pIC50 was 3.82. The same measure, in the same setting: under `Nc1nc(N)c2cc(CN3CCNCC3)ccc2n1` stands 4.22; under `CNC1=Nc2cccc3cccc(c23)N1`, 4.30.
